Legend:
Experiment in all cases: relative viability (nuclei count vs DMSO), 5 days (fraction); higher = more cells survive
[1] = compound: CCN1CCN(c2ccc(Nc3cc(N(C)C(=O)Nc4c(Cl)c(OC)cc(OC)c4Cl)ncn3)cc2)CC1 [BGJ398]
Summary of the method: (§1)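 Five library-drug doses spaced by √10 were pinned onto vehicle-anchored 1536-well plates of lung cancer cell lines that had been kept overnight at 37 °C. Cells went 5 days without medium change, then were fixed, permeabilised and Hoechst-stained together, imaged at 4× and counted by MetaXpress. Viability is the ratio of treated-well to vehicle-well nuclei, taken as a median over plates. Plates required control CV below 25% and at least one doubling.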

[2] = compound: C1=CC2=NC=CN=C2C=C1/C=C/3\C(=O)NC(=O)S3
Summary of the method: as §1

[3] = compound: C1=CC2=NC=CN=C2C=C1/C=C/3\C(=O)NC(=O)S3 + Nc1ncn([C@H]2C[C@H](O)[C@@H](CO)O2)c(=O)n1 [Decitabine] (partner 2 µM)
Summary of the method: (§2)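 Each reported value is a median over duplicate plates. It expresses relative viability: treated-well nuclei count divided by vehicle-well nuclei count. Lung cancer cell lines in 1536-well plates were dosed by pin tool a day after seeding, alone with one drug or with a fixed anchor-drug dose plus five library-drug doses (not always all listed) in √10 steps, and nuclei were counted after 5 days.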

[4] = compound: CCN1CCN(c2ccc(Nc3cc(N(C)C(=O)Nc4c(Cl)c(OC)cc(OC)c4Cl)ncn3)cc2)CC1 [BGJ398] + C[C@]1(O)C[C@@H](c2nc(-c3ccc4ccc(-c5ccccc5)nc4c3)c3c(N)nccn32)C1 [Linsitinib] (partner 1 µM)
Summary of the method: as §2

## UMC-11
[1]; 0.01 µM
  relative viability: 0.955
[1]; 0.03162 µM
  relative viability: 1.05
[1]; 0.1 µM
  relative viability: 1.05
[1]; 0.3162 µM
  relative viability: 0.968
[1]; 1 µM
  relative viability: 0.919
[2]; 0.02 µM
  relative viability: 0.978
[2]; 0.06325 µM
  relative viability: 1
[2]; 0.2 µM
  relative viability: 1.01
[2]; 0.6325 µM
  relative viability: 0.925
[2]; 2 µM
  relative viability: 1.06
[3]; first compound 0.02 µM
  relative viability: 0.695
[3]; first compound 0.06325 µM
  relative viability: 0.665
[3]; first compound 0.2 µM
  relative viability: 0.681
[3]; first compound 0.6325 µM
  relative viability: 0.531
[3]; first compound 2 µM
  relative viability: 0.69
[4]; first compound 0.01 µM
  relative viability: 1.01
[4]; first compound 0.03162 µM
  relative viability: 0.982
[4]; first compound 0.1 µM
  relative viability: 1.04
[4]; first compound 0.3162 µM
  relative viability: 1.03
[4]; first compound 1 µM
  relative viability: 1.01

From the supplement of paper PMC10307832
